Values quoted from earlier work as cited in patent US12606590B2, “MRNA 5′-end cap analogs, RNA molecule incorporating the same, uses thereof and method of synthesizing RNA molecule or peptide” (Uniwersytet Warszawski, priority 2020, dated 2026).

Conditions: in vitro and in vivo; single atom substitution in β position of cap oligophosphate bridge

## CO[C@@H]1[C@H](O)[C@@H](COP(=O)(O)OP(=O)([S-])OP(=O)(O)OC[C@H]2O[C@@H](n3cnc4c(=O)[nH]c(N)nc43)[C@H](O)[C@@H]2O)O[C@H]1n1c[n+](C)c2c(O)nc(N)nc21 (stereo partly drawn) [β-S-ARCA]
  mRNA translation efficiency: significant increase in mRNA translation efficiency
